Results reported in patent publication US10800784B2, “Nitrogen-containing heterocyclic amide compound and pharmaceutical use thereof” (Japan Tobacco Inc., priority 2018, dated 2020).

How the values were obtained:
[1] = target: human PDHK1 (hPDHK1) (Homo sapiens (Human), UniProt Q15118); test: Inhibitory action of PDHK1 activity in vitro (residual PDH activity after PDHK reaction); assay type: biochemical; conditions: for IC50: PDH/hPDHK1 complex solution, PDHK reaction at room temperature for 45 min, NADH absorbance at 340 nm, read-out: hPDK1 IC50; for inhibition at 0.003 µM: at 3 nmol/L, shown when IC50 value could not be calculated, read-out: hPDHK1 inhibitory rate at the lowest concentration of the test compound
Chain of human PDHK1 (hPDHK1) (Q15118 29-436): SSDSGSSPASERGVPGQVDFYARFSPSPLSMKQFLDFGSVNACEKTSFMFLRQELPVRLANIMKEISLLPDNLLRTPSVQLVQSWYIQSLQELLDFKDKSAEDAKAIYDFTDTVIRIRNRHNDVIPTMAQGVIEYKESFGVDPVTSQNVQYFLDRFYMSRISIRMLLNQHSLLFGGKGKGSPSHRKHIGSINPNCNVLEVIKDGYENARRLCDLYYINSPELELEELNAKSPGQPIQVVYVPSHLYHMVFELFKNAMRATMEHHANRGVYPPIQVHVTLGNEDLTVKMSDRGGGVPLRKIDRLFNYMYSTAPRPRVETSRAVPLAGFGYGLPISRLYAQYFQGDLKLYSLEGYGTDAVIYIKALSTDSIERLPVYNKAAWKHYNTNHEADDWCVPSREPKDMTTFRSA
In short: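 N-FLAG hPDHK1 (E. coli-expressed, 0.5 μg/mL) precomplexed overnight at 4 °C with porcine heart PDH (0.025 U/mL), then reacted 45 min at room temperature with compound and ATP (0.353 μmol/L as added) in MOPS pH 7.0 buffer. Residual PDH activity after 90 min with pyruvate, CoA, NAD, TPP read as NADH at 340 nm.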

[2] = target: human PDHK2 (hPDHK2) (Homo sapiens (Human), UniProt Q15119); test: Inhibitory action of PDHK2 activity in vitro (residual PDH activity after PDHK reaction); assay type: biochemical; conditions: PDH/hPDHK2 complex solution, PDHK reaction at room temperature for 45 min, NADH absorbance at 340 nm; read-out: kPDK2 IC50
In short: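 Indirect assay: FLAG-tagged hPDHK2 (0.5 μg/mL) precomplexed overnight at 4 °C with PDH (0.025 U/mL), then kinase reaction with compound and ATP 45 min at room temperature, pH 7.0 MOPS buffer. Residual PDH activity measured after 90 min with pyruvate, CoA, NAD, TPP as NADH absorbance at 340 nm, corrected for compound effect on PDH-only blank.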

SMILES: C[C@H]1CN(C(=O)c2cc(C3(C)CC3)n(C)n2)Cc2onc([C@@](C)(O)C(F)(F)F)c21 [Example 119]
- IC50 [1]: 4 nM
- IC50 [2]: 5 nM

SMILES: C[C@H]1CN(C(=O)c2nn(C)c3cc(F)c(F)cc23)Cc2cnc([C@@](C)(O)C(F)(F)F)n21 [Example 10, (5,6-difluoro-1-methyl-1H-indazol-3-yl)((S)-5-methyl-3-((R)-1,1,1-trifluoro-2-hydroxypropan-2-yl)-5,6-dihydroimidazo[1,5-a]pyrazin-7(8H)-yl)methanone]
- IC50 [1]: 9 nM
- IC50 [2]: 13 nM

SMILES: C[C@H]1CN(C(=O)c2cc(-c3ccc(F)cc3)ncc2F)Cc2cnc([C@@](C)(O)C(F)(F)F)n21 [Example 86]
- IC50 [1]: < 3 nM
- inhibition at 0.003 µM [1]: 52%
- IC50 [2]: 4 nM

SMILES: C[C@H]1CN(C(=O)c2ccn(C3CC3)n2)Cc2onc([C@@](C)(O)C(F)(F)F)c21 [Example 110]
- IC50 [1]: 7 nM
- IC50 [2]: 13 nM

SMILES: C[C@H]1CN(C(=O)c2cc(-c3ccc(C#N)cc3F)nn2C)Cc2cnc([C@@](C)(O)C(F)(F)F)n21 [Example 50]
- IC50 [1]: 4 nM
- IC50 [2]: 5 nM

SMILES: C[C@H]1CN(C(=O)c2cc(-c3ccc(F)cc3F)nn2C)Cc2cnc([C@@](C)(O)C(F)(F)F)n21 [Example 47]
- IC50 [1]: < 3 nM
- inhibition at 0.003 µM [1]: 53%
- IC50 [2]: 4 nM

SMILES: C[C@H]1CN(C(=O)C2CCC(n3cccn3)CC2)Cc2cnc([C@@](C)(O)C(F)(F)F)n21 (some centres unmarked) [Example 60]
- IC50 [1]: 14 nM
- IC50 [2]: 9 nM

SMILES: C[C@H]1CN(C(=O)c2ccc(F)c(-c3ccc(C#N)cn3)c2)Cc2cnc([C@@](C)(O)C(F)(F)F)n21 [Example 58]
- IC50 [1]: 3 nM
- IC50 [2]: 4 nM

SMILES: C[C@H]1CN(C(=O)c2cc(C3CC3)n(C)n2)Cc2onc([C@@](C)(O)C(F)(F)F)c21 [Example 113]
- IC50 [1]: 4 nM
- IC50 [2]: 5 nM

SMILES: C[C@H]1CN(C(=O)c2cc(-c3ccc(F)cc3)nn2C)Cc2cnc([C@@](C)(O)C(F)(F)F)n21 [Example 16, (3-(4-fluorophenyl)-1-methyl-1H-pyrazol-5-yl) ((S)-5-methyl-3-((R)-1,1,1-trifluoro-2-hydroxypropan-2-yl)-5,6-dihydroimidazo[1,5-a]pyrazin-7(8H)-yl)methanone]
- IC50 [1]: 6 nM
- IC50 [2]: 7 nM

SMILES: C[C@H]1CN(C(=O)c2ccc(C3(O)CCCC3)cc2)Cc2cnc([C@@](C)(O)C(F)(F)F)n21 [Example 52]
- IC50 [1]: 4 nM
- IC50 [2]: 6 nM

SMILES: C[C@H]1CN(C(=O)c2ccc3c(c2)OC(F)(F)O3)Cc2cnc([C@@](C)(O)C(F)(F)F)n21 [Example 11, (2,2-difluorobenzo[d][1,3]dioxol-5-yl)((S)-5-methyl-3-((R)-1,1,1-trifluoro-2-hydroxypropan-2-yl)-5,6-dihydroimidazo[1,5-a]pyrazin-7(8H)-yl)methanone]
- IC50 [1]: 14 nM
- IC50 [2]: 15 nM

SMILES: C[C@H]1CN(C(=O)c2nnc(C3CC3)o2)Cc2onc([C@@](C)(O)C(F)(F)F)c21 [Example 115]
- IC50 [1]: 6 nM
- IC50 [2]: 8 nM

SMILES: C[C@H]1CN(C(=O)c2ccc(F)c(-c3ccncc3F)c2)Cc2cnc([C@@](C)(O)C(F)(F)F)n21 [Example 82]
- IC50 [1]: 5 nM
- IC50 [2]: 7 nM

SMILES: C[C@H]1CN(C(=O)c2cc(-c3ccc(C#N)cc3)n(C3CC3)n2)Cc2cnc([C@@](C)(O)C(F)(F)F)n21 [Example 53, 4-(1-cyclopropyl-3-((S)-5-methyl-3-((R)-1,1,1-trifluoro-2-hydroxypropan-2-yl)-5,6,7,8-tetrahydroimidazo[1,5-a]pyrazine-7-carbonyl)-1H-pyrazol-5-yl)benzonitrile]
- IC50 [1]: 4 nM
- IC50 [2]: 8 nM

SMILES: C[C@H]1CN(C(=O)[C@@H]2c3ccccc3CCN2C)Cc2onc([C@@](C)(O)C(F)(F)F)c21 [Example 106]
- IC50 [1]: < 3 nM
- inhibition at 0.003 µM [1]: 61%
- IC50 [2]: 4 nM
